Our source for the GI50 and IC50 values is patent publication US10053458B2, “Pyrimidine-2,4-diamine derivative and anticancer pharmaceutical composition comprising same as effective ingredient” (KOREA RESEARCH INSTITUTE OF CHEMICAL TECHNOLOGY, priority 2014, dated 2018).

Assay [1] deals with H2228. The assay can be described thus: Cancer cell proliferation inhibition (SRB/MTS), H2228. Conditions: read-out: H2228 GI50.
Protocol: (§1) Cancer cell lines used in the experiments were all human-derived cancer cell lines, specifically H2228 and H3122, which are non-small cell lung cancer cell lines.
(§2) The cancer cell proliferation inhibition was measured using the MTS assay as follows. […] Each culture medium was placed in an incubator for 4 hours, taken out and left at room temperature for 10 minutes.
The test system of assay [2] is H3122. The experiment in a line: Cancer cell proliferation inhibition (SRB/MTS), H3122. The settings on record: read-out: H3122 GI50.
Protocol: as §1, §2
Assay [3] deals with BaF3 EML4-ALK WT cells. The experiment in a line: Cytotoxicity on BaF3 cell transfected with EML4-ALK WT (WST-1). Conditions: Ba/F3 EML4-ALK, 72 h, read-out: BaF3 EML4-ALK WT, IC50 of the cytotoxicity.

Counter-ions that a name gives are not always drawn. Like-named read-outs stand apart in the source and are kept apart here. A value given as a limit tells only on which side of the number the result lay.

A word on the GI50: it is the concentration at which growth is held to half of that of the control. A word on the IC50: it is the concentration that inhibits the measured activity by half. Take `COc1cc2c(cc1Nc1ncc(Cl)c(Nc3ccccc3S(=O)(=O)C(C)C)n1)CC1(CC1)N(C(=O)C(F)(F)F)C2C` (stereo not drawn) [Example 29]: the GI50 was < 50 nM in assay [1] (Homo sapiens, NCI-H2228, 72 h) and < 50 nM in assay [2] (Homo sapiens, NCI-H3122, 72 h). In addition, the IC50 in assay [3] is < 50 nM.

For the compound `CC(C)S(=O)(=O)c1ccccc1Nc1nc(Nc2cc3c(cc2OC(F)F)C(C)(C)NCC3)ncc1Cl` [Example 100, 5-chloro-N4-(2-(isopropylsulfonyl)phenyl)-N2-(7-difluoromethoxy-1,1-dimethyl-1,2,3,4-tetrahydroisoquinolin-6-yl)pyrimidine-2,4-diamine], the GI50 in assay [1] (Homo sapiens, NCI-H2228, 72 h) was < 50 nM; in assay [2] (Homo sapiens, NCI-H3122, 72 h), < 50 nM. The IC50 in assay [3] is < 50 nM.

Turning to `COc1cc2c(cc1Nc1ncc(Cl)c(Nc3ccccc3S(=O)(=O)C(C)C)n1)C(C)(C)CNC2` [Example 12, 5-chloro-N4-(2-(isopropylsulfonyl)phenyl)-N2-(7-methoxy-4,4-dimethyl-1,2,3,4-tetrahydroisoquinolin-6-yl)pyrimidine-2,4-diamine], the GI50 was < 50 nM in assay [1] (Homo sapiens, NCI-H2228, 72 h) and < 50 nM in assay [2] (Homo sapiens, NCI-H3122, 72 h). Further, the IC50 in assay [3] is < 50 nM.

Turning to `COc1cc2c(c(Cl)c1Nc1ncc(Cl)c(Nc3ccccc3S(=O)(=O)C(C)C)n1)CCNC2(C)C` [Example 88, 5-chloro-N4-(2-(isopropylsulfonyl)phenyl)-N2-(5-chloro-7-methoxy-1,1-dimethyl-1,2,3,4-tetrahydroisoquinolin-6-yl)pyrimidine-2,4-diamine], the GI50 is < 50 nM in assay [1] (Homo sapiens, NCI-H2228, 72 h) and < 50 nM in assay [2] (Homo sapiens, NCI-H3122, 72 h). In addition, the IC50 in assay [3] was < 50 nM.

Turning to `CC(C)Oc1cc2c(cc1Nc1ncc(Cl)c(Nc3ccccc3S(=O)(=O)C(C)C)n1)CCNC2(C)C` [Example 71, 5-chloro-N4-(2-(isopropylsulfonyl)phenyl)-N2-(7-isopropoxy-1,1-dimethyl-1,2,3,4-tetrahydroisoquinolin-6-yl)pyrimidine-2,4-diamine], the GI50 is < 50 nM in assay [1] (Homo sapiens, NCI-H2228, 72 h) and < 50 nM in assay [2] (Homo sapiens, NCI-H3122, 72 h). Besides, in assay [3], the IC50 was < 50 nM.

Regarding `CC(C)Oc1cc2c(cc1Nc1ncc(Cl)c(Nc3ccccc3S(=O)(=O)C(C)C)n1)CNCC2(C)C` [Example 80, 5-chloro-N4-(2-(isopropylsulfonyl)phenyl)-N2-(6-isopropoxy-4,4-dimethyl-1,2,3,4-tetrahydroisoquinolin-7-yl)pyrimidine-2,4-diamine], the GI50 in assay [1] (Homo sapiens, NCI-H2228, 72 h) is < 50 nM; in assay [2] (Homo sapiens, NCI-H3122, 72 h), < 50 nM. In assay [3], the IC50 is < 50 nM.

Consider `COc1cc2c(cc1Nc1ncc(Cl)c(Nc3ccccc3S(=O)(=O)C(C)C)n1)CCN(Cc1ccccc1)C2(C)C` [Example 31, 5-chloro-N4-(2-(isopropylsulfonyl)phenyl)-N2-(2-benzyl-7-methoxy-1,1-dimethyl-1,2,3,4-tetrahydroisoquinolin-6-yl)pyrimidine-2,4-diamine], for which the GI50 in assay [1] (Homo sapiens, NCI-H2228, 72 h) is < 50 nM; in assay [2] (Homo sapiens, NCI-H3122, 72 h), < 50 nM. Further, the IC50 in assay [3] was < 50 nM.

As to `COc1cc2c(cc1Nc1ncc(Cl)c(Nc3ccccc3S(=O)(=O)C(C)C)n1)CN(C(=O)CN(C)C)CC2(C)C` [Example 94], the GI50 was < 50 nM in assay [1] (Homo sapiens, NCI-H2228, 72 h) and < 50 nM in assay [2] (Homo sapiens, NCI-H3122, 72 h). Further, the IC50 in assay [3] was < 50 nM.

For `COc1cc2c(cc1Nc1ncc(Cl)c(Nc3ccccc3S(=O)(=O)C(C)C)n1)CCNC2C` (stereo not drawn) [Example 25], the 50% growth inhibitory concentration (GI50) in assay [1] (Homo sapiens, NCI-H2228, 72 h) is < 50 nM; in assay [2] (Homo sapiens, NCI-H3122, 72 h) it was 8.9 nM.

With `CC(C)Oc1cc2c(cc1Nc1ncc(Cl)c(Nc3ccccc3S(=O)(=O)C(C)C)n1)CCNC2C` (stereo not drawn) [Example 70, 5-chloro-N4-(2-(isopropylsulfonyl)phenyl)-N2-(7-isopropoxy-1-methyl-1,2,3,4-tetrahydroisoquinolin 6 yl)pyrimidine-2,4-diamine], the GI50 in assay [1] (Homo sapiens, NCI-H2228, 72 h) is < 50 nM; in assay [2] (Homo sapiens, NCI-H3122, 72 h), < 50 nM. Also, in assay [3], the IC50 was < 50 nM.

As for `CCN1CCc2cc(Nc3ncc(Cl)c(Nc4ccccc4S(=O)(=O)C(C)C)n3)c(OC)cc2C1(C)C` [Example 77, 5-chloro-N4-(2-(isopropylsulfonyl)phenyl)-N2-(2-ethyl-7-methoxy-1,1-dimethyl-1,2,3,4-tetrahydroisoquinolin-6-yl)pyrimidine-2,4-diamine], the GI50 in assay [1] (Homo sapiens, NCI-H2228, 72 h) is < 50 nM; in assay [2] (Homo sapiens, NCI-H3122, 72 h) it was < 50 nM. Besides, the IC50 in assay [3] was < 50 nM.

On to `COc1cc2c(cc1Nc1ncc(Cl)c(Nc3ccccc3S(=O)(=O)C(C)C)n1)C1(CCCCC1)CN(C(=O)C(F)(F)F)C2` [Example 15, 1-(6-(5-chloro-4-(2-(isopropylsulfonyl)phenylamino)pyrimidin-2-yl)amino-7-methoxy-1H-spiro[cyclohexane-1,4-isoquinoline]-2(3H)-yl)-2,2,2-trifluoroethane-1-one], for which the GI50 is < 50 nM in assay [1] (Homo sapiens, NCI-H2228, 72 h) and < 50 nM in assay [2] (Homo sapiens, NCI-H3122, 72 h). The IC50 in assay [3] was < 50 nM.

Consider `C[C@@H](Oc1cc(-c2cnn(C3CCNCC3)c2)cnc1N)c1c(Cl)ccc(F)c1Cl` [Comparative Example 1, Crizotinib, reference compound], for which the GI50 in assay [1] (Homo sapiens, NCI-H2228, 72 h) worked out at 85 nM; in assay [2] (Homo sapiens, NCI-H3122, 72 h), 280 nM.

As to `COc1cc2c(cc1Nc1ncc(Cl)c(Nc3ccccc3S(=O)(=O)C(C)C)n1)C1CNCC(=O)N1CC2` (stereo not drawn) [Example 97], the concentration for 50% growth inhibition (GI50) in assay [1] (Homo sapiens, NCI-H2228, 72 h) was < 50 nM; in assay [2] (Homo sapiens, NCI-H3122, 72 h), < 50 nM.

Turning to `COc1cc2c(cc1Nc1ncc(Cl)c(Nc3ccccc3S(=O)(=O)C(C)C)n1)CCNC2(C)C` [Example 101, 5-chloro-N4-(2-(isopropylsulfonyl)phenyl)-N2-(7-methoxy-1,1-dimethyl-1,2,3,4-tetrahydroisoquinolin-6-yl)pyrimidine-2,4-diamine hydrochloride], the GI50 in assay [1] (hydrochloride) and in assay [2] (hydrochloride) was < 50 nM throughout.

For `COc1cc2c(cc1Nc1ncc(Cl)c(Nc3ccccc3S(=O)(=O)C(C)C)n1)C1(CCCC1)CNC2` [Example 14, 5-chloro-N4-(2-(isopropylsulfonyl)phenyl)-N2-(7-methoxy-2,3-dihydro-1H-spiro[cyclopentane-1,4-isoquinoline]-6-yl)pyrimidine-2,4-diamine], the GI50 in assay [1] (Homo sapiens, NCI-H2228, 72 h) was < 50 nM; in assay [2] (Homo sapiens, NCI-H3122, 72 h), < 50 nM.

For the compound `COc1cc2c(cc1Nc1ncc(Cl)c(Nc3ccccc3S(=O)(=O)C(C)C)n1)CCN1C(=O)CNCC21` (stereo not drawn) [Example 84], the GI50 in assay [1] (Homo sapiens, NCI-H2228, 72 h) was < 50 nM; in assay [2] (Homo sapiens, NCI-H3122, 72 h), < 50 nM.

On to `CCC1NCCc2cc(Nc3ncc(Cl)c(Nc4ccccc4S(=O)(=O)C(C)C)n3)c(OC)cc21` (stereo not drawn) [Example 27], for which the GI50 in assay [1] (Homo sapiens, NCI-H2228, 72 h) was < 50 nM; in assay [2] (Homo sapiens, NCI-H3122, 72 h) it was 8.4 nM.

For `COc1cc2c(cc1Nc1ncc(Cl)c(Nc3ccccc3S(=O)(=O)C(C)C)n1)CN(C)CC2` [Example 35, 5-chloro-N4-(2-(isopropylsulfonyl)phenyl)-N2-(6-methoxy-2-methyl-1,2,3,4-tetrahydroisoquinolin-7-yl)pyrimidine-2,4-diamine], the GI50 was < 50 nM in assay [1] (Homo sapiens, NCI-H2228, 72 h) and < 50 nM in assay [2] (Homo sapiens, NCI-H3122, 72 h).

For the compound `COc1cc2c(cc1Nc1ncc(Cl)c(Nc3ccccc3S(=O)(=O)C(C)C)n1)CCNC2(C)C` [Example 33, 5-chloro-N4-(2-(isopropylsulfonyl)phenyl)-N2-(7-methoxy-1,1-dimethyl-1,2,3,4-tetrahydroisoquinolin-6-yl)pyrimidine-2,4-diamine], the GI50 in assay [1] came to 18 nM; in assay [2], 11 nM.
